Reference: patent US10888569B1, “Methods and compositions for treating cancer” (THE UNIVERSITY OF CHICAGO, priority 2017, dated 2021)

Key:
Assay type in all cases: cell-based, human
[1] = system: TNBC cells (BM1, MB436, MB468, BT549)
Protocol: (§1) TNBC cell lines stably knocked down with lenti-viral shRNA for BACH1 were constructed and maintained as described previously. Gene expression analysis of cultured cells and isolated tumor tissues used a Reverse transcriptase kit followed by Roche96 cycler for real time mRNA quantification and Lycor imaging for immunoblotting. For in vitro cell viability assay with mitochondrial inhibitors, TNBC cells (2×10^3-5×10^3/well) seeded on 96 well plates overnight with culture media (DMEM with 25 mM Glucose) were treated with inhibitors in fresh culture media (DMEM with 1.25 mM Glucose) for 48 and 72 hours and stained with calcein AM and/or monitored for cellular confluency using an IncuCyte Zoom Live Cell Analysis system. Extracellular flux analyzer was used to assay metabolic phenotypes of BACH1-depleted TNBC cells and TNBC cells that are treated with hemin overnight before assays. For bioinformatics analysis using primary patient data cohort (TCGA), cBioportal and R were used.
Breast cancer cells (5,000 cells/well) and non-malignant mammary epithelial cells (8,000 cells/well) were plated on 96-well plates to observe growth of cells every 4 hours by phase contrast imaging using an IncuCyte Zoom Live Cell Analysis system (Essen Bioscience). After 24 hours of plating, inhibitors were added and monitored until control cells reached 100% confluent. To determine cell viability, cells were seeded in black walled 96-well plates overnight and treated with inhibitors for 48 hours. Calcein AM (R&D system) in PBS was then added and incubated for 1 hour at 37° C. Fluorescence was determined using a Victor3 plate reader (PerkinElmer) with excitation at 420 nm and emission at 520 nm. The absorbance was used to reflect live cell numbers and was normalized to those in control with vehicles and shown as relative viability (%).

[2] = system: mitochondrial inner membrane genes; assay: Real-time quantitative PCR of mitochondrial inner membrane (ETC) genes; conditions: hemin 20 μM, 48 hours; BM1 and MB436 cells
Protocol: Total RNA from cells and tumor samples was isolated using Trizol (Invitrogen) according to the manufacturer's instructions. Two μg of RNA was adapted for reverse transcriptase PCR (Applied Biosystem) to generate cDNA. Real-time PCR was carried out using LightCycler 96 (Roche) and a Fast Start Essential DNA master mix (2×) reagent. Cq values normalized relative to the expression of endogenous control genes using 2^(−ΔΔCq) were plotted.

[3] = system: TNBC cells (BM1); assay: Metabolic phenotypes OCR and ECAR (Seahorse analyzer); conditions: hemin (pre-)treatment overnight
Protocol: as §1
Extracellular acidification rates (ECAR) and oxygen consumption rates (OCR) were monitored by a Seahorse Bioscience Analyzer (XF24; Univ. of Illinois at Chicago and XFe96; Biophysics Core Facility at Univ. of Chicago). Cells were seeded in 24 well plates at a density of 5×10^4 and 96 well plates at a density of 8×10^3 cells per well with growth media for at least 18 hours. The following day, media was changed to base media (DMEM, 143 mM NaCl, Phenol red, pH 7.35). For ECAR analysis, cells were added with media (2 mM Glutamine, pH 7.35) and monitored every 3 minutes following successive administration of 10 mM of glucose, and inhibitors such as 1 μM of oligomycin and 50 mM of 2-DG. For OCR analysis, cells were added with mito stress test base media (10 mM Glucose, 2 mM Glutamine, 1 mM Pyruvate, pH 7.4) and monitored every 3 minutes following successive administration of inhibitors such as 2 μM of oligomycin, 2 μM of FCCP, and […] of Rotenone/AntimycinA. BCA protein assays were used to normalize metabolic rates to cell number.

[4] = biological target: T1, BACH1 (Mus musculus, UniProt P97302, C438A/C464A/C495A/C649A); assay: Immunoblotting of BACH1 in cell lysates after hemin; conditions: hemin 20 μM
T1 construct: Protein blots of BACH1 levels in BM1 and MB436 cells treated with Hemin for 4 or 24 hours; endogenous in cells; host or cells: BM1 (MDA-MB-231 derivative), MDA-MB-436, BT549
T1 sequence (P97302 1-739 C438A/C464A/C495A/C649A): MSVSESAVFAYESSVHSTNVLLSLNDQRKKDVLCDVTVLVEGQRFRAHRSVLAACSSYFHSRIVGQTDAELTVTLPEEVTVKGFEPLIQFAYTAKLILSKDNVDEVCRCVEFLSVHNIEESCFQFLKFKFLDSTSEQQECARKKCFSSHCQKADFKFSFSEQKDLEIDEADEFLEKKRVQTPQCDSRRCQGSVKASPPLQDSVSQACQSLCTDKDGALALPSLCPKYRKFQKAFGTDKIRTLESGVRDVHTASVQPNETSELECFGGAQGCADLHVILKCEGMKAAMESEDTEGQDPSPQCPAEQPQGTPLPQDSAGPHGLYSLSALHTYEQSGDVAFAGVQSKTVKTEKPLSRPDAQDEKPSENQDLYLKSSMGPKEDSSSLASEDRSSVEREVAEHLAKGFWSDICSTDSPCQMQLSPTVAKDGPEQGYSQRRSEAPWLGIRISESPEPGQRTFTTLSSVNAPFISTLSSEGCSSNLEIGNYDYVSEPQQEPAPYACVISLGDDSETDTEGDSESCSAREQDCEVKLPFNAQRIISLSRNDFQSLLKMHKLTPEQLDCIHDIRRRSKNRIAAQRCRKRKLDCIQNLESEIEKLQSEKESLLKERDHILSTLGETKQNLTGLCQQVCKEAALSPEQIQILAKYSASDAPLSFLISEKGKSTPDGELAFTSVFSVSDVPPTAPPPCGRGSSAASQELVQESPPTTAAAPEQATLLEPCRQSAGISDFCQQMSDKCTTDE
Protocol: Whole cell lysates were prepared using RIPA buffer (Sigma) with protease inhibitor cocktails (1:100 ThermoFisher) and phosphatase inhibitors (SimpleStop1, Gold Biotechnology) at 4° C. and quantified using Bradford assays for western blotting using antibodies against BACH1 (sc-271211; Santa Cruz), and alpha-TUBULIN (sc-28199; Santa Cruz). Blots were imaged and processed using a Licor Odyssey Fc, dual-mode imaging system (Licor).

C=CC1=C(C)c2cc3[n-]c(cc4[n-]c(cc5nc(cc1n2)C(C)=C5C=C)c(C)c4CCC(=O)O)c(CCC(=O)O)c3C.[Cl-].[Fe+3] [hemin, Chloro[3,7,12,17-tetramethyl-8,13-divinylporphyrin-2,18-dipropanoato(2-)]iron(III)]
cytotoxicity / growth inhibition of cultured TNBC cells ([1]; 20 μM hemin): neither cytotoxic nor growth inhibitory | metformin sensitivity of MB468 cells expressing wild type BACH1 when treated with hemin ([1]; MB468 transfected with pCDH-BACH1): metformin sensitivity was restored | cytotoxicity / growth inhibition of TNBC cells ([1]; hemin 10-80 μM up to 124 hours): neither cytotoxic nor growth inhibitory | mitochondrial gene expression [2]: increased | ECAR [3]: lower basal ECAR | maximum OCR [3]: higher maximum OCR | spare respiratory capacity [3]: higher spare respiratory capacity | degradation of heme-resistant BACH1 mutant (Mut-Bach1) [4]: did not degrade Mut-Bach1
